# Reference: US5382586A, “Aryl (or heteroaryl)piperazinylalkylazole derivatives, their preparation and their application as medicaments” (priority 1991, dated 1995)
# What was measured:
# immobility of mice = assay: desperate behaviour test (antidepressant activity); type: in vivo, mouse; details: 30 mg/kg, i.p.; p < 0.05; control 118 s
# Experimental: The desperate behaviour test in mice, described by R. D. Porsolt et al. (Arch. Int. Pharmacodyn. 1977, 229, 327-336), is used.
# The animals are placed for 6 minutes in a cylinder containing water, from which they are not able to escape. The period of immobility between minutes 2 and 5 is determined for groups of 10 mice per dosage tested.
# The product studied is administered i.p. 1 hour before the test. In this test the immobility of the animals is explained as being produced by their depressed state resulting from being faced with an adverse and insoluble situation in a hostile environment such as water.
# In our test imipramine (30 mg/kg; i.p.) was used as reference product.
# [1] = test system: familiarisation process in mice; assay: light box/dark box test: familiarisation process (improvement of cognition); type: in vivo, mouse
# Description: The influence of this product on the familiarisation process of mice in the light box/dark box test described by J. M. Barnes et al., (Pharmacol. Biochem. Behav., 1990, 35, 955-962) is studied. On the one hand, the effect on learning (the speed of familiarisation) and on the other hand the capacity for blocking contrary effects produced by escopolamine are studied.
# The mouse is placed in the light zone of a box divided into two compartments, one brightly illuminated, the light box, and the other with little illumination, the dark box.
# 1) The number of times the mouse stands up on the hind paws in each compartment during a 5 minute period is counted (see Column 1 of the table below).
# 2) The activity in each compartment is given by counting the number of crossings through the squares which form the divisions of each compartment (see Column 2 of the table below).
# 3) The time passed in the dark box during the 5 minute counting period is determined (see Column 3 of the table below).
# 4) The initial latent period is determined, that is to say the time which elapses after the animal is placed in the light box, at the start of the test, before it enters the dark box (see Column 4 of the table below).
# Two treatments with the vehicle are administered to the control animals per day. Two doses of 0.00001 ng/kg p.o. of compound 42 are administered per day to the animals treated with this product. The same operation is repeated daily for 5 days.
# The animals learn to remain in the dark box for a longer period and to go into the box more rapidly.
# On day six escopolamine (2×0.25 mg/kg, i.p.) is administered.
# They recover the learned habit on day seven.
# [2] = test system: norepinephrine-induced death in rats; assay: norepinephrine antagonism test in rats (antihypertensive activity); type: in vivo, rat (male Wister); details: for Activity % (norepinephrine antagonistic antihypertensive activity): D = 40 mg/kg, i.p., rat, norepinephrine 1.25 mg/kg i.v. after 2 hours; for ED50: Rattus norvegicus, ip, 2 h, read-out: ED50 (norepinephrine antagonistic antihypertensive activity)
# Experimental: This activity is manifested by the protection of animals before death induced by an intravenous injection of norepinephrine, which produces a hypertensive attack in rats.
# Male Wister rats weighing 200 grammes are used in this test. The product to be studied is administered intraperitoneally and 1.25 mg/kg (i.v.) of norepinephrine are administered after 2 hours.
# The initial administration dose in these studies is 40 mg/kg (i.p.).
# [3] = test system: conditioned avoidance response in male Wistar rats; assay: conditioned avoidance response test (inhibition of the conditioned avoidance response; anxiolytic/tranquillising activity); type: in vivo, rat (male Wistar); details: rat; for Activity % (inhibition of the conditioned avoidance response): D = 80 mg/kg, p.o., 45 min before test; for ED50: po, 0.75 h
# Experimental: Male Wistar rats weighing 200 grammes which have been trained to jump over a barrier in an avoidance and escape cage (shuttle box) (Letica, reference LI 910 and LI 2700) within 30 seconds of their being introduced into the cage are used in this test.
# The products having an anxiolytic or tranquillising activity suppress the conditioned avoidance response.
# Training: day one: 11 trials at 3 minute intervals. Electric shock to the paws after 30 seconds (5 mA, 0.1 s, 10 s).
# Days two and three: 2 trials per day, with the selected rats only [sum of the scores for the first day (with the exception of the first trial)>14].
# Test day: groups formed by selected rats. Oral administration of the product or the vehicle 45 minutes before the start of the study.
# [4] = day 6, after 2 treatments with escopolamine (0.25 mg/kg, i.p.), Example 42 at 0.00001 ng/kg p.o. twice per day
Structure (SMILES),Activity % (norepinephrine antagonistic antihypertensive activity) [2],ED50 [2],Activity % (inhibition of the conditioned avoidance response) [3],ED50 [3],other results
"CN(C)CCCN1c2ccccc2CCc2ccccc21 [Imipramine, reference compound]",,,,,Period of immobility (immobility of mice): 71 s
"NC(=O)CN1CCCC1=O [Piracetam, reference compound]",,,,,cognition-improving activity ([1]; mice): no activity
COc1cccc(N2CCN(CCCCn3cc(Cl)cn3)CC2)c1 [Example 31],0%,8.9 mg/kg,100%,20.8 mg/kg,
"O=C(O)c1cnn(CCCCN2CCN(c3ncccn3)CC2)c1 [Example 6, 4-carboxy-1-{4-[4-(2-pyrimidinyl)-1-piperazinyl]-butyl}-1H-pyrazole]",75%,31.7 mg/kg,57%,44.3 mg/kg,
"COc1ccccc1N1CCN(CCCNc2cc(C)nn2C)CC1 [Example 45, 1,3-dimethyl-5-{3-[4-(2-methoxyphenyl)-1-piperazinyl]-propylamino}-1H-pyrazole]",100%,2.8 mg/kg,100%,,
Cc1nc2ccccc2n1CCCCN1CCN(c2ncccn2)CC1 [Example 25],25%,,52%,61.7 mg/kg,
Clc1ccc2ncn(CCCCN3CCN(c4ncccn4)CC3)c2c1 [Example 22],0%,,100%,9.1 mg/kg,
Clc1cnn(CCCCN2CCN(c3nsc4ccccc34)CC2)c1 [Example 43],66%,,100%,,
c1ccc(-c2nccn2CCCCN2CCN(c3ncccn3)CC2)cc1 [Example 13],0%,,70%,17.1 mg/kg,
Cc1nc(Cl)c(Cl)n1CCCCN1CCN(c2ccccc2)CC1 [Example 36],100%,7.6 mg/kg,76%,42 mg/kg,
c1cnc(N2CCN(CCCCn3nnc4ccccc43)CC2)nc1 [Example 19],0%,,99%,,
"CN1C2CC(OC(=O)C(CO)c3ccccc3)CC1C1OC12 (stereo not shown) [escopolamine, reference compound]",,,,,"effect on the learned behaviour (control group) ([1]; 2×0.25 mg/kg, i.p., day six): the animals of the control group ""forget"" the learned behaviour; Activity within 5 min. period, dark (D) [1, 4]: 30; Activity within 5 min. period, light (L) [1, 4]: 67; Latent period L-D [1, 4]: 21; No. of times standing erect within 5 min period, dark (D) [1, 4]: 38; No. of times standing erect within 5 min period, light (L) [1, 4]: 59; Time in the box, dark (D) [1, 4]: 27"
"NC(=O)c1cnn(CCCCN2CCN(c3ncccn3)CC2)c1 [Example 5, 4-carboxamido-1-{4-[4-(2-pyrimidinyl)-1-piperazinyl]-butyl}-1H-pyrazole]",0%,,68%,33.5 mg/kg,
Cc1nc(-c2ccccc2)c(-c2ccccc2)n1CCCCN1CCN(c2ncccn2)CC1 [Example 10],0%,,38%,,
Cc1nc(Cl)c(Cl)n1CCCCN1CCN(c2ccccc2Cl)CC1 [Example 38],100%,1.3 mg/kg,78%,,
Clc1cccc(N2CCN(CCCCn3cc(Cl)cn3)CC2)c1 [Example 39],0%,,100%,,
COc1ccccc1N1CCN(CCCCn2cccc2)CC1 [Example 33],100%,2.23 mg/kg,99%,23.9 mg/kg,
Clc1ccc2c(c1)ncn2CCCCN1CCN(c2ncccn2)CC1 [Example 21],0%,,100%,9.3 mg/kg,
COc1ccccc1N1CCN(CCCCn2cc(Cl)cn2)CC1 [Example 29],100%,0.46 mg/kg,100%,8.9 mg/kg,
